How the values were obtained:
[1] = test system: mice (tail electrical stimulation, absence of squeak); assay: Analgesic Activity (Electrical Stimulation Method); type: in vivo, mouse; conditions: male mice, intraperitoneal, tail stimulated 5 s, 25 volts, 40 msec., 1 cps, determined graphically; for ED50: Mus musculus, ip
Procedure: 1. Analgesic Activity (Electrical Stimulation Method)
The test was performed essentially in accordance with the methods described in "Journal of the Pharmaceutical Society of Japan," vol 73, p. 212 ff. (1953) and "Folia Pharmacologica Japonica," vol. 65, p. 378 ff. (1969).
Test compound was administered intraperitoneally to groups consisting 10 male mice. The tail of the mouse was electrically stimulated for 5 seconds with interrupted direct current (25 volts, 40 msec., 1 cps.). When no squeak was observed during the electrical stimulation, analgesic effect was evaluated to be positive.
The ED50 (50% effective dose) was determined graphically.

[2] = test system: mice (pentylenetetrazole lethality); assay: Anticonvulsant Activity (pentylenetetrazole-induced death); type: in vivo, mouse; conditions: intraperitoneal; for Anticonvulsant Activity %-Inhibition: 15 min before pentylenetetrazole 150 mg/kg s.c., deaths within 3 hours, at dose equal to analgesic ED50: 40 (1, 2), 30 (3), 28 (4), 200 (5), 170 (6), 200 (7) mg/kg; for A/B (A: ED50 value for analgesic activity; B: ED50 value for anticonvulsant activity): ratio of ED50 values
Procedure: 2. Anticonvulsant Activity
Pentylenetetrazole (150 mg/kg) was administered subcutaneously to groups consisting 6 mice 15 minutes after the intraperitoneal administration of the test compound. The number of dead mice were counted within 3 hours after the administration of pentylenetetrazole. On one hand, the %-inhibition at the dose equal to the ED50 dose for analgesic activity was determined, and on the other, the ED50, the dose required to suppress the lethal rate to 50%, was determined graphically.

Row | Molecule | ED50 [1] | Anticonvulsant Activity %-Inhibition [2] | A/B (A: ED50 value for analgesic activity; B: ED50 value for anticonvulsant activity) [2] | Analgesic Activity ED50 [1]
1 | CCc1cc2c(s1)N(C(=O)N(C)C)CCN=C2c1ccccc1Cl.Cl [Test Compound 1, 5-o-chlorophenyl-7-ethyl-1-dimethylcarbamoyl-2,3-dihydro-1H-thieno[2,3-e][1,4]diazepine hydrochloride] | 40 mg/kg | 0% | < 0.4 | –
2 | CCc1cc2c(s1)N(C(=O)NC)CCN=C2c1ccccc1Cl [Test Compound 7, 5-o-chlorophenyl-7-ethyl-1-methylcarbamoyl-2,3-dihydro-1H-thieno[2,3-e][1,4]diazepine, reference compound] | 200 mg/kg | 100% | 2 - 4 | –
3 | 7-ethyl-1-dimethylcarbamoyl-5-phenyl-2,3-dihydro-1H-thieno[2,3-e][1,4]diazepine hydrochloric [Example 5] | – | – | – | > 200 mg/kg
4 | 5-o-chlorophenyl-7-ethyl-1-(4-methyl-1-piperazinylcarbonyl)-2,3-dihydro-1H-thieno[2,3-e][1,4]diazepine dihydrochloride 1/2 -hydrate [Example 4] | – | – | – | 28 mg/kg
5 | 5-(3,4-dichlorophenyl)-7-ethyl-1-dimethylcarbamoyl-2,3-dihydro-1H-thieno[2,3-e][1,4]diazepine hydrochloride [Example 6] | – | – | – | 170 mg/kg
6 | CCc1cc2c(s1)N(C(=O)N(C)C)CCN=C2c1ccc(Cl)cc1.Cl [Test Compound 2, 5-p-chlorophenyl-7-ethyl-1-dimethylcarbamoyl-2,3-dihydro-1H-thieno[2,3-e][1,4]diazepine hydrochloride] | 40 mg/kg | 0% | < 0.4 | –
7 | 5-o-chlorophenyl-7-ethyl-1-piperidinocarbonyl-2,3-dihydro-1H-thieno[2,3-e][1,4]diazepine hydrochloride [Example 3] | – | 0% | < 0.4 | –
8 | Cc1c(N(C)C)c(=O)n(-c2ccccc2)n1C [Aminopyrine, reference compound] | 100 mg/kg | – | – | –

— patent publication US4010184A, “Thienodiazepines” (Yoshitomi Pharmaceutical Industries, Ltd., priority 1973, dated 1977)
